Test results taken from ChEMBL document CHEMBL4609985, “Superior inhibition of influenza virus hemagglutinin-mediated fusion by indole-substituted spirothiazolidinones” (Bioorg Med Chem, 2020).

How the values were obtained:
[1] = Cytotoxicity against MDCK cells assessed as minimum cytotoxic concentration after 4 days by MTS assay; type: cell-based, Canis lupus familiaris; conditions: dog
[2] = Selectivity index, ratio of CC50 for MDCK cells to EC50 for antiviral activity against Influenza H3N2 A/HK/7/87 infected in MDCK cells after 4 days by MTS assay; type: toxicity, cell-based; conditions: dog, read-out: Ratio CC50/EC50
[3] = tested on: Influenza A virus H3N2; assay: Antiviral activity against IInfluenza A virus H3N2 A/HK/7/87 infected in MDCK cells after 4 days by MTS assay; type: functional, organism-based; conditions: A/HK/7/87, MDCK, 96 h
[4] = tested on: Influenza A virus H3N2; assay: Antiviral activity against Influenza A virus H3N2 A/HK/7/87 infected in MDCK cells assessed as reduction in virus induced cytopathic effect after 4 days by microscopy based method; type: functional, organism-based; conditions: A/HK/7/87, MDCK, 96 h
[5] = Cytotoxicity against MDCK cells assessed as reduction in cell viability after 4 days by MTS assay; type: cell-based, Canis lupus familiaris; conditions: dog
[6] = Inhibition of influenza H3N2 A/X-31 hemagglutinin 3 expressed in HeLa cells assessed as polykaryon formation preincubated for 15 mins and further incubated for 15 mins with acidic buffer containing compounds at pH 5.2 by giemsa staining based microscopic analysis; type: cell-based, Influenza A virus (A/X-31(H3N2)); conditions: Influenza A virus

Structure (SMILES)	MCC at 96 h [1]	selectivity ratio at 96 h [2]	EC50 [3]	EC50 [4]	CC50 at 96 h [5]	EC50 [6]
Cc1nc2sccn2c1C(=O)NN1C(=O)C(C)SC12CCC(C)CC2 (centres undefined)	≥ 100 µM	> 31	3.2 µM	5 µM	> 100 µM	1.1 µM
Cc1c(C(=O)NN2C(=O)C(C)SC23CCCCC3C)[nH]c2ccc(Cl)cc12 (centres undefined)	≥ 20 µM		> 100 µM	> 100 µM	88 µM	
Cc1c(C(=O)NN2C(=O)C(C)SC23CCC(c2ccccc2)CC3)[nH]c2ccc(Cl)cc12 (centres undefined)	1 µM		> 100 µM	> 100 µM	2.3 µM	
Cc1c(C(=O)NN2C(=O)C(C)SC23CCCC3)[nH]c2ccc(Cl)cc12 (centres undefined)	> 100 µM		> 100 µM	> 100 µM	> 100 µM	
Cc1c(C(=O)NN2C(=O)CSC23CCCCC3C)[nH]c2ccc(Cl)cc12 (centres undefined)	≥ 20 µM		> 100 µM	> 100 µM	> 100 µM	
Cc1c(C(=O)NN2C(=O)C(C)SC23CCC(C(C)(C)C)CC3)[nH]c2ccc(Cl)cc12 (centres undefined)	≥ 4 µM		> 100 µM	> 100 µM	0.9 µM	
Cc1c(C(=O)NN2C(=O)C(C)SC23CCC(C)CC3)[nH]c2ccc(Cl)cc12 (centres undefined)	0.87 µM	62	0.045 µM	0.063 µM	2.8 µM	2.1 µM
Cc1c(C(=O)NN2C(=O)CSC23CC(C)CC(C)(C)C3)[nH]c2ccc(Cl)cc12 (centres undefined)	> 100 µM		> 100 µM	> 100 µM	> 100 µM	
Cc1c(C(=O)NN2C(=O)C(C)SC23CC(C)CC(C)(C)C3)[nH]c2ccc(Cl)cc12 (centres undefined)	20 µM		> 100 µM	> 100 µM	85 µM	
Cc1c(C(=O)NN2C(=O)C(C)SC23CCCC(C)C3)[nH]c2ccc(Cl)cc12 (centres undefined)	≥ 4 µM	1440	0.023 µM	0.031 µM	33 µM	1.4 µM
Cc1c(C(=O)NN2C(=O)CSC23CCCC(C)C3)[nH]c2ccc(Cl)cc12 (centres undefined)	≥ 100 µM		> 100 µM	> 100 µM	> 100 µM	
CCCC1CCC2(CC1)SC(C)C(=O)N2NC(=O)c1[nH]c2ccc(Cl)cc2c1C (centres undefined)	0.8 µM		> 100 µM	> 100 µM	1.9 µM	
Cc1c(C(=O)NN2C(=O)CSC23CCC(C(C)(C)C)CC3)[nH]c2ccc(Cl)cc12 (centres undefined)	0.8 µM		> 100 µM	> 100 µM	2.1 µM	
Cc1c(C(=O)NN2C(=O)CSC23CCC(C)CC3)[nH]c2ccc(Cl)cc12 (centres undefined)	≥ 100 µM		> 100 µM	> 100 µM	> 100 µM	
Cc1c(C(=O)NN2C(=O)CSC23CCCC3)[nH]c2ccc(Cl)cc12	> 100 µM		> 100 µM	> 100 µM	> 100 µM	
CCCC1CCC2(CC1)SCC(=O)N2NC(=O)c1[nH]c2ccc(Cl)cc2c1C (centres undefined)	0.8 µM		> 100 µM	> 100 µM	1.3 µM	
Cc1c(C(=O)NN2C(=O)CSC23CCC(c2ccccc2)CC3)[nH]c2ccc(Cl)cc12 (centres undefined)	5 µM		> 100 µM	> 100 µM	2.4 µM	
CCC1CCC2(CC1)SC(C)C(=O)N2NC(=O)c1[nH]c2ccc(Cl)cc2c1C (centres undefined)	3 µM	1950	0.00077 µM	0.0012 µM	1.5 µM	0.88 µM
CCC1CCC2(CC1)SCC(=O)N2NC(=O)c1[nH]c2ccc(Cl)cc2c1C (centres undefined)	≥ 4 µM		> 100 µM	> 100 µM	94 µM	
Cc1c(C(=O)NN2C(=O)CSC23CCCCC3)[nH]c2ccc(Cl)cc12	> 100 µM		> 100 µM	> 100 µM	> 100 µM	
Cc1c(C(=O)NN2C(=O)C(C)SC23CCCCC3)[nH]c2ccc(Cl)cc12 (centres undefined)	≥ 4 µM	92	0.063 µM	0.085 µM	5.8 µM	1.3 µM
NC12CC3CC(CC(C3)C1)C2 [AMANTADINE]	> 200 µM		1.2 µM	3.8 µM	> 200 µM	
CC(C)(C)c1cc(O)ccc1O [E319]						9.9 µM
NC(=O)c1ncn([C@@H]2O[C@H](CO)[C@@H](O)[C@H]2O)n1 [RIBAVIRIN]	≥ 100 µM		4.6 µM	8.4 µM	> 100 µM	
CCOC(=O)c1c(CSc2ccccc2)n(C)c2cc(Br)c(O)c(CN(C)C)c12 [UMIFENOVIR]						40 µM
